Key:
[1] = test system: antibodies in sera from SARS patients (sera 1a, 1b, 2, 6, 37, 62, London, SARS-yellow, SARS-green); format: binding, human; set-up: Binding of serum 6 to linear peptides of protein X1 of SARS-CoV Urbani / Binding of serum 37 to linear peptides of protein X1 of SARS-CoV Urbani / Binding of serum 6 to looped/cyclic peptide (PEPSCAN-ELISA) / Binding of serum 37 to looped/cyclic peptide (PEPSCAN-ELISA) / Binding of serum 37 to looped/cyclic peptides of protein X1 of SARS-CoV Urbani / Binding of serum 6 to linear peptides of protein X2 / Binding of serum 37 to linear peptides of protein X2 / Binding of serum 37 to looped/cyclic peptides of protein X2 of SARS-CoV Urbani / Binding of serum 6 to linear peptides of protein M of SARS-CoV Urbani / Binding of serum 37 to linear peptides of protein M of SARS-CoV Urbani / Binding of serum 6 to looped/cyclic peptides of protein M of SARS-CoV Urbani / Binding of serum 37 to looped/cyclic peptides of protein M of SARS-CoV Urbani / Binding of serum 6 to linear peptides of protein X3 of SARS-CoV Urbani / Binding of serum 37 to linear peptides of protein X3 of SARS-CoV Urbani / Binding of serum 37 to looped/cyclic peptides of protein X3 of SARS-CoV Urbani / Binding of serum 6 to linear peptides of protein X4 of SARS-CoV Urbani / Binding of serum 37 to linear peptides of protein X4 of SARS-CoV Urbani / Binding of serum 37 to looped/cyclic peptides of protein X4 of SARS-CoV Urbani / Binding of serum 6 to linear peptides of protein X5 of SARS-CoV Urbani / Binding of serum 37 to linear peptides of protein X5 of SARS-CoV Urbani / Binding of serum 37 to looped/cyclic peptides of protein X5 of SARS-CoV Urbani / Binding of serum 6 to linear peptides of protein N of SARS-CoV Urbani / Binding of serum 37 to linear peptides of protein N of SARS-CoV Urbani / Binding of serum 6 to linear peptide (PEPSCAN-ELISA) / Binding of serum 1a to looped/cyclic peptides of protein N of SARS-CoV Urbani / Binding of serum 1b to looped/cyclic peptides of protein N of SARS-CoV Urbani / Binding of serum 2 to looped/cyclic peptides of protein N of SARS-CoV Urbani / Binding of serum 6 to looped/cyclic peptides of protein N of SARS-CoV Urbani / Binding of serum 37 to looped/cyclic peptides of protein N of SARS-CoV Urbani / Binding of serum 62 to looped/cyclic peptides of protein N of SARS-CoV Urbani / Binding of serum London to looped/cyclic peptides of protein N of SARS-CoV Urbani / Binding of serum SARS-green to looped/cyclic peptides of protein N of SARS-CoV Urbani: unit not given here
[2] = test system: control sera (pooled serum of ten healthy LUMC hospital workers; commercial negative donor pooled serum from the Dutch bloodbank); format: binding, human; set-up: Binding of Control serum LUMC to linear peptides / Binding of Control serum Blood-bank to linear peptides / Binding of Control serum LUMC to looped peptides / Binding of Control Serum Blood-Bank to Looped peptides / Binding of Control serum LUMC to linear peptides of the protein M of SARS-CoV Urbani / Binding of Control serum Blood-bank to linear peptides of the protein M of SARS-CoV Urbani / Binding of Control serum LUMC to looped peptides of the protein M of SARS-CoV Urbani / Binding of Control Serum Blood-Bank to Looped peptides of the protein M of SARS-CoV Urbani: unit not given here
[3] = test system: rabbit serum obtained by immunizing a rabbit with the SARS-CoV strain Frankfurt 1; format: binding; set-up: Binding of a rabbit serum to linear peptides / Binding of a rabbit serum to looped peptides / Rabbit serum linear peptides / Rabbit serum looped peptides / Binding of a rabbit serum to linear peptides of protein N of SARS-CoV Urbani (Rabbit serum linear peptides) / Binding of a rabbit serum to looped/cyclic peptides of protein N of SARS-CoV Urbani (Rabbit serum looped peptides): unit not given here

Sequence | Binding of serum 1a to linear peptides of protein M of SARS-CoV Urbani [1] | Binding of serum 1a to looped/cyclic peptides of protein M of SARS-CoV Urbani [1] | Binding of serum 1b to linear peptides of protein M of SARS-CoV Urbani [1] | Binding of serum 1b to looped/cyclic peptides of protein M of SARS-CoV Urbani [1] | Binding of serum 2 to linear peptides of protein M of SARS-CoV Urbani [1] | Binding of serum 2 to looped/cyclic peptides of protein M of SARS-CoV Urbani [1] | Binding of serum 6 to linear peptides of protein M of SARS-CoV Urbani [1] | Binding of serum 6 to looped/cyclic peptides of protein M of SARS-CoV Urbani [1] | Binding of serum 37 to linear peptides of protein M of SARS-CoV Urbani [1] | Binding of serum 37 to looped/cyclic peptides of protein M of SARS-CoV Urbani [1] | Binding of serum 62 to linear peptides of protein M of SARS-CoV Urbani [1] | Binding of serum 62 to looped/cyclic peptides of protein M of SARS-CoV Urbani [1] | Binding of serum London to linear peptides of protein M of SARS-CoV Urbani [1] | Binding of serum London to looped/cyclic peptides of protein M of SARS-CoV Urbani [1] | Binding of serum SARS-green to linear peptides of protein M of SARS-CoV Urbani [1] | Binding of serum SARS-green to looped/cyclic peptides of protein M of SARS-CoV Urbani [1] | Binding of serum SARS-yellow to linear peptides of protein M of SARS-CoV Urbani [1] | Binding of serum SARS-yellow to looped/cyclic peptides of protein M of SARS-CoV Urbani [1] | Binding of Control Serum Blood-Bank to Looped peptides of the protein M of SARS-CoV Urbani [2] | Binding of Control serum Blood-bank to linear peptides of the protein M of SARS-CoV Urbani [2] | also measured
AVYRINWVTGGIAIA | 0.7 | 0.8 | 0.6 | 0.4 | 0.6 | 0.6 | 0.2 | 0.6 | 0.8 | 0.7 | 0.8 | 0.7 | 0.3 | 0.2 | 0.3 | 0.4 | 0.1 | 0.7 | 0.8 | 0.7 | Binding of Control serum LUMC to linear peptides of the protein M of SARS-CoV Urbani [2]: 0.5; Binding of Control serum LUMC to looped peptides of the protein M of SARS-CoV Urbani [2]: 0.8; Rabbit serum linear peptides [3]: 0.4; Rabbit serum looped peptides [3]: 0.5
AWIMLLQFAYSNRNR | 0.7 | 0.7 | 0.6 | 0.7 | 0.5 | 0.6 | 0.5 | 1.1 | 0.4 | 0.6 | 0.4 | 0.6 | 0.3 | 0.6 | 0.6 | 0.4 | 0.2 | 0.7 | 0.7 | 0.7 | Binding of Control serum LUMC to linear peptides of the protein M of SARS-CoV Urbani [2]: 0.5; Binding of Control serum LUMC to looped peptides of the protein M of SARS-CoV Urbani [2]: 0.7; Rabbit serum linear peptides [3]: 0.3; Rabbit serum looped peptides [3]: 0.4
